The results in this text go back to US8518963B2, “Therapeutic polymeric nanoparticle compositions with high glass transition temperature or high molecular weight copolymers” (BIND Therapeutics, Inc., priority 2009, dated 2013).

Data set [1] in a line: Rat pharmacokinetics after a single intravenous dose. Format: in vivo, Rats (male Sprague Dawley). The note with it: single intravenous dose 0.5 mg/kg, plasma, individual rats. As to the method:
Rats (male Sprague Dawley, approximately 300 g with jugular cannulae) were given a single intravenous dose of 0.5 mg/kg of budesonide or passively targeted nanoparticles (PTNP) encapsulating budesonide (prepared as in Example 16) at time=0. At various times after dosing, blood samples were collected from the jugular cannulae into tubes containing lithium heparin, and plasma was prepared. Plasma levels were determined by extraction of the budesonide from plasma followed by LCMS analysis.

Data set [2] deals with indomethacin induced inflammatory bowel disease in rats. The data set is described as follows: Rat model of inflammatory bowel disease (IBD). Format: in vivo. As to conditions: 5 days, female rats. As to the method: Budesonide and Budesonide PTNP were compared in a model of inflammatory bowel disease (IBD) as an efficacy model of inflammation. In this model, female rats were given two subcutaneous doses of 8 mg/kg indomethacin at 24 hour intervals to induce lesions resembling those occurring in Crohn's disease in the small intestine. Intravenous daily treatment with vehicle, budesonide (0.02, 0.2 or 2 mg/kg) or budesonide PTNP (0.02, 0.2 or 2 mg/kg) or oral daily treatment with Dexamethasone (0.1 mg/kg) was initiated one day before indomethacin treatment (day −1) and continued for 5 total days (days −1 to 3). Animals were euthanized on day 4, and a 10 cm area at risk in the small intestine was scored for gross pathology and weighed.
Using a disease scoring system in which a score of 0 is normal, and a score of 5 indicates death due to IBD symptoms, normal rats have an average score of 0, and an average intestinal weight of 0.488 g.

Regarding `CCCC1O[C@@H]2C[C@H]3[C@@H]4CCC5=CC(=O)C=C[C@]5(C)[C@H]4[C@@H](O)C[C@]3(C)[C@]2(C(=O)CO)O1` (some centres unmarked) [Budesonide, budesonide], in data set [1], the “AUCinf” value worked out at 159 ng·h/mL and the “t1/2” value amounted to 45 min. In addition, in data set [2] (0.02 mg/kg intravenous daily), the “decrease of intestinal scores towards normal” value came to 52% and the “decrease of small intestine weights toward normal” value is 52%. In data set [2] (0.2 mg/kg intravenous daily), the “decrease of intestinal scores towards normal” value was 53% and the “decrease of small intestine weights toward normal” value is on record as 53%. In data set [2] (2 mg/kg intravenous daily), the “decrease of intestinal scores towards normal” value is 59% and the “decrease of small intestine weights toward normal” value amounted to 59%.
